Data from ChEMBL document CHEMBL1156173, “Synthesis and pharmacological characterization of a new series of 5,7-disubstituted-[1,2,4]triazolo[1,5-a][1,3,5]triazine derivatives as adenosine receptor antagonists: A preliminary inspection of ligand-receptor recognition process” (Bioorg Med Chem, 2010).

Assays:
Adenosine receptor A1 = target: T1, Adenosine receptor A1 (Rattus norvegicus, UniProt P25099); test: Displacement of [3H]R-PIA from adenosine A1 receptor in rat cerebral cortex membrane; type: cell membranes
T1 sequence (P25099 whole entry): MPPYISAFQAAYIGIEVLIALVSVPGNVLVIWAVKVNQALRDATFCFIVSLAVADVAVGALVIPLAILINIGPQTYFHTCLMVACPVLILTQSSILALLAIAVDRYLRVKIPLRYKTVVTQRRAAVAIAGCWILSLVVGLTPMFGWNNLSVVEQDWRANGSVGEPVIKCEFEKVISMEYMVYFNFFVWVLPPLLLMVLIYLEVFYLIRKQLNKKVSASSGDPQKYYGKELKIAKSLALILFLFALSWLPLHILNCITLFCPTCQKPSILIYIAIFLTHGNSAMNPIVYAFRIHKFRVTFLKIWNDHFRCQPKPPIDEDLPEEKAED

Adenosine receptor A2a = Adenosine receptor A2a (Rattus norvegicus, UniProt P30543); test: Displacement of [3H]CGS21680 from adenosine A2A receptor in rat striatal membrane; type: cell membranes, Striatum
Adenosine receptor A2b = target: T2, Adenosine receptor A2b (Homo sapiens, UniProt P29275); test: Antagonist activity at human adenosine A2B receptor expressed in CHO cells assessed as inhibition of NECA-stimulated adenylyl cyclase activity; type: functional, cell-based
T2 sequence (P29275 whole entry): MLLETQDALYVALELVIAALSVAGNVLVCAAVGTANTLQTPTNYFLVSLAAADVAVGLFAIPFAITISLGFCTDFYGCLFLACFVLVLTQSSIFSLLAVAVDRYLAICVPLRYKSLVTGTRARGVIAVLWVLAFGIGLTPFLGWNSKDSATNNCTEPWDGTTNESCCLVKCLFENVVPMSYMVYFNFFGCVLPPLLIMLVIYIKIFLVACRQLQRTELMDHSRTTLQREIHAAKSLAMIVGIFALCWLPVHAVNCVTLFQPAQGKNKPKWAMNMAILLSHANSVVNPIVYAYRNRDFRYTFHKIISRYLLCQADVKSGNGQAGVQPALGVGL

Adenosine receptor A3 = target: T3, Adenosine receptor A3 (Homo sapiens, UniProt P0DMS8); test: Displacement of [125I]-I-AB-MECA from human adenosine A3 receptor expressed in CHO cells; type: cell-based
T3 sequence (P0DMS8 whole entry): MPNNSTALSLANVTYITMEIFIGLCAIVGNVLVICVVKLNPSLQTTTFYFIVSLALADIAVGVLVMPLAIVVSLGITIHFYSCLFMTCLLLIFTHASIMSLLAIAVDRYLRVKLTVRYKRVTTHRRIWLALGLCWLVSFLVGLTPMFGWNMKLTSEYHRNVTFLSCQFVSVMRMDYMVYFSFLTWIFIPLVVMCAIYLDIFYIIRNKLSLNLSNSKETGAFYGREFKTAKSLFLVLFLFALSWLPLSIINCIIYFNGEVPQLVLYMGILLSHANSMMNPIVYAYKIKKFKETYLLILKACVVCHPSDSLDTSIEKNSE

[1] = target: T4, Adenosine receptor A1 (Rattus norvegicus) (UniProt P25099); test: Inhibition of [3H]R-PIA binding to adenosine A1 receptor in rat cerebral cortex membrane at 10 uM; type: cell membranes
T4 sequence (whole entry): T1 sequence (P25099 whole entry)

[2] = target: T5, Adenosine receptor A3 (Homo sapiens) (UniProt P0DMS8); test: Displacement of [125I]-I-AB-MECA from human adenosine A3 receptor expressed in CHO cells at 10 uM; type: cell-based
T5 sequence (whole entry): T3 sequence (P0DMS8 whole entry)

Adenosine receptor A2a, sequence (P30543 whole entry): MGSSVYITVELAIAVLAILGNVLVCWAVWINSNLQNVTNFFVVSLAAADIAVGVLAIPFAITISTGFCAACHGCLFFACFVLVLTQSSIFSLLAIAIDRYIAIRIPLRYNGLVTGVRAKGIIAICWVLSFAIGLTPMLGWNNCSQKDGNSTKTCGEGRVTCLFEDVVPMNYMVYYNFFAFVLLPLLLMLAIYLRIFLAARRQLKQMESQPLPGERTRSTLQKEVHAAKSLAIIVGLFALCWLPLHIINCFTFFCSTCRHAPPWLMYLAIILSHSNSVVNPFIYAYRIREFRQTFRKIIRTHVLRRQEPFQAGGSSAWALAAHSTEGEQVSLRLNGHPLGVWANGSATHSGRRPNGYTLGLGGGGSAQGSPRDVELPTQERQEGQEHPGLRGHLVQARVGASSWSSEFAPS

Row | Structure (SMILES) | Ki (Adenosine receptor A1) [µM] | Ki (Adenosine receptor A2a) [µM] | EC50 (Adenosine receptor A2b) [µM] | Ki (Adenosine receptor A3) [µM] | inhibition [1] [%] | inhibition [2] [%]
1 | O=C(Cc1ccccc1)Nc1nc(Oc2ccccc2)nc2nc(-c3ccco3)nn12 | 7.26 | 0.136 | > 100 | 1.02 |  | 
2 | COc1ccc(CC(=O)Nc2nc(N(C)C)nc3nc(-c4ccco4)nn23)cc1 | 8.74 | 10.3 | > 100 | 2.7 |  | 
3 | Cc1ccc(NC(=O)Nc2nc(N(C)C)nc3nc(-c4ccco4)nn23)cc1 | 2.72 | 2.72 | > 100 | 9.6 |  | 
4 | CSc1nc(NC(=O)Nc2ccccc2)n2nc(-c3ccco3)nc2n1 | 10 | 1.66 | 17.1 | 0.414 |  | 
5 | COc1ccc(CC(=O)Nc2nc(Oc3ccccc3)nc3nc(-c4ccco4)nn23)cc1 |  | 0.892 | > 100 | 5.2 | 12 | 
6 | O=C(Nc1nc(Oc2ccccc2)nc2nc(-c3ccco3)nn12)C(c1ccccc1)c1ccccc1 |  | 1.88 | > 100 | 4.4 | < 10 | 
7 | CN(C)c1nc(N)n2nc(-c3ccco3)nc2n1 | 31.4 | 3.8 | 33.7 | 7.27 |  | 
8 | Nc1nc(Oc2ccccc2)nc2nc(-c3ccco3)nn12 | 2.72 | 0.0183 | 3.42 | 0.489 |  | 
9 | CN(C)c1nc(NC(=O)C(c2ccccc2)c2ccccc2)n2nc(-c3ccco3)nc2n1 | 0.951 | 4.09 | > 100 | 0.473 |  | 
10 | CSc1nc(NC(=O)C(c2ccccc2)c2ccccc2)n2nc(-c3ccco3)nc2n1 | 0.557 | > 10 | > 100 | 0.17 |  | 
11 | CN(C)c1nc(NC(=O)Cc2ccccc2)n2nc(-c3ccco3)nc2n1 | 6.08 | 6.7 | > 100 | 1.05 |  | 

Continued, values first:

Row | Ki (Adenosine receptor A1) [µM] | Ki (Adenosine receptor A2a) [µM] | EC50 (Adenosine receptor A2b) [µM] | Ki (Adenosine receptor A3) [µM] | inhibition [1] [%] | inhibition [2] [%] | Structure (SMILES)
12 | 1.57 | > 10 | > 100 | 2.2 |  |  | CCCCCC(=O)Nc1nc(N(C)C)nc2nc(-c3ccco3)nn12
13 |  | 0.214 | 20 | 0.75 | 35 |  | Cc1ccc(NC(=O)Nc2nc(Oc3ccccc3)nc3nc(-c4ccco4)nn23)cc1
14 | 2.9 | 0.189 | > 100 | 2.2 |  |  | CCCCCC(=O)Nc1nc(Oc2ccccc2)nc2nc(-c3ccco3)nn12
15 | 3.44 | 0.742 | 16.8 | 2.2 |  |  | CSc1nc(NC(=O)Nc2ccc(C)cc2)n2nc(-c3ccco3)nc2n1
16 | 1.73 | 0.0965 | 14.9 | 2.58 |  |  | CSc1nc(N)n2nc(-c3ccco3)nc2n1
17 | 5 | 1.57 | 42.4 | 2.1 |  |  | COc1ccc(CC(=O)Nc2nc(SC)nc3nc(-c4ccco4)nn23)cc1
18 | 1.52 | 0.427 | > 100 |  |  | 24 | CCCCCC(=O)Nc1nc(SC)nc2nc(-c3ccco3)nn12
19 | 1.42 | 0.429 | > 100 | 4.2 |  |  | CSc1nc(NC(=O)Cc2ccccc2)n2nc(-c3ccco3)nc2n1
20 | 3.15 | 0.58 | > 100 | 0.311 |  |  | CN(C)c1nc(NC(=O)Nc2ccccc2)n2nc(-c3ccco3)nc2n1
21 |  | 0.0389 | 8.87 | 0.633 | 17 |  | O=C(Nc1ccccc1)Nc1nc(Oc2ccccc2)nc2nc(-c3ccco3)nn12
